Reference: patent US20240342168A1, “SMALL MOLECULE INHIBITORS FOR ANTI-CANCER COMBINATION THERAPY” (UNIVERSITY OF CAPE TOWN, priority 2021, published 2024)

Assays:
p53 = settings: CRM1 inhibition, other cancers, literature; cited from earlier work
[1] = test system: cyclin D1, c-Myc and XIAP; experiment: Western blot of NFκB targets; type: cell-based; settings: single cisplatin treatment
Method: (§1) For protein extraction, cells were washed with PBS and lysed using RIPA buffer (50 mM Tris-CI, pH 7.4, 150 mM NaCl, 1% (w/v) sodium deoxycholate, 0.1% (v/v) SDS, 1% (v/v) Triton X-100, 2 mM EGTA, 2 mM EDTA, 50 mM NaF, 5 mM Na2P2O7, 1× complete protease inhibitor cocktail (Roche) and 0.1 M Sodium Orthovanadate). For PARP cleavage analysis, dead cells were collected by centrifugation and combined with live cell lysates. Lysates were sonicated, centrifuged, and the supernatant quantified using the BCA Protein Assay Kit (Pierce, Thermo Scientific) according to the manufacturer's instructions. Proteins were subjected to Western blot analysis using the following antibodies: rabbit anti-Kpnβ1 (H-300, sc-11,367, Santa Cruz), rabbit anti-β-tubulin (H-235, sc-9104, Santa Cruz), rabbit anti-PARP1/2 antibody (H-250, sc-7150, Santa Cruz), mouse anti-GAPDH (0411, sc-47,724, Santa Cruz), rabbit anti-p21 (H-164, sc-756, Santa Cruz), rabbit anti-Mcl-1 (H-260, sc-20,679, Santa Cruz), mouse anti-cyclin D1 (HD11, sc-246, Santa Cruz), rabbit anti-c-Myc (N-262, sc-764, Santa Cruz), mouse anti-p53 (DO-7, M7001, DakoCytomation), mouse anti-XIAP (610,763, BD Biosciences), and rabbit anti-phospho-Histone H2AX (γH2AX, Ser139, 20E3, #9718, Cell Signal).

[2] = test system: p53, p21 and Mcl-1 in SiHa cells; experiment: Western blot of p53 and p53 targets; type: cell-based
Method: as §1

[3] = test system: p65 reporter activity in SiHa cells; experiment: p65-luciferase reporter assay; type: cell-based; settings: 30 μM single cisplatin treatment
Method: (§2) SiHa cells were transfected with 100 ng p65-luciferase reporter construct (containing five copies of the p65-binding site, Promega) or 200 ng p53-luciferase reporter construct (containing thirteen wildtype p53 binding sites, Addgene plasmid #16442, Addgene Plasmid Repository (el-Deiry W S, Tokino T, Velculescu V E, Levy D B, Parsons R, Trent J M, et al. WAF1, a potential mediator of p53 tumor suppression. Cell. 1993; 75(4):817-25) and 10 ng pRL-TK (encoding Renilla luciferase, Promega), using Genecellin transfection reagent (Celtic Molecular Diagnostics). The following day cells were treated with 5 μM INI-43 for 2 h, followed by 30 μM cisplatin for 24 h, and luciferase activity assayed using the Dual-Luciferase Report assay system (Promega), according to the manufacturer's instructions. Luciferase readings were measured using the Veritas™ microplate luminometer (Promega) and normalised to Renilla luciferase from the same extract.

CaSki = experiment: MTT cell viability / cisplatin IC50 determination; type: cell-based; settings: 48-h treatment, no INI-43 pre-treatment
Method: (§3) HeLa, SiHa, CaSki and C33A cell lines were purchased from the American Type Culture Collection (ATCC) and maintained in Dulbecco's Modified Eagle's Medium (DMEM, Gibco, Life Technologies) containing 10% Fetal Bovine Serum (Gibco, Life Technologies), supplemented with 100 U/mL penicillin and 100 μg/mL streptomycin. Cells were cultured at 37° C. in a humidified chamber with 5% CO2. All cell lines were authenticated by DNA profiling using the Cell ID System (Promega, Madison, WI, USA).
(§4) Cells were plated in 96-well plates and subjected to single or CT (2 h INI-43 pre-treatment followed by cisplatin treatment, without removing IN1-43 from the media) for 48 h. Following treatment, MTT (Sigma) was added and 4 h later crystals solubilized using 10% SLS in 0.01 M HCl. Absorbencies were measured at 595 nm and IC50 values determined via plotting [Fa/(1-Fa)] in log scale against log cisplatin concentration, where:
(§5) The half inhibitory concentration was calculated using the formula IC50=10^x-intercept

C33A = experiment: MTT cell viability / cisplatin IC50 determination; type: cell-based; settings: 48-h treatment, no INI-43 pre-treatment
Method: as §3, §4, §5

SiHa = experiment: MTT cell viability / cisplatin IC50 determination; type: cell-based
Method: as §3, §4, §5

HeLa = experiment: MTT cell viability / cisplatin IC50 determination; type: cell-based
Method: as §3, §4, §5

[4] = test system: NFκB-p50 and NFκB-p65 in SiHa cells; experiment: Immunofluorescence of NFκB nuclear localization; type: cell-based
Method: SiHa cells were plated on glass coverslips and treated for 24 h before fixation with 4% paraformaldehyde. Cells were permeabilised using 0.5% Triton-X-100/PBS and blocked using 1% BSA/PBST with 0.3 M Glycine. Primary antibody incubations were performed in 1% BSA/PBST, followed by secondary antibody incubation (Cy3 conjugated goat anti-rabbit, Jackson ImmunoResearch). Cell nuclei were counterstained with 0.5 μg/mL DAPI, and images captured using the Zeiss inverted fluorescence microscope under 100× oil immersion.

[5] = test system: NFκB-p50 and NFκB-p65 in SiHa cells; experiment: Nuclear/cytoplasmic fractionation and Western blot; type: cell-based; settings: cisplatin treatment
Method: For protein extraction, cells were washed with PBS and lysed using RIPA buffer (50 mM Tris-CI, pH 7.4, 150 mM NaCl, 1% (w/v) sodium deoxycholate, 0.1% (v/v) SDS, 1% (v/v) Triton X-100, 2 mM EGTA, 2 mM EDTA, 50 mM NaF, 5 mM Na2P2O7, 1× complete protease inhibitor cocktail (Roche) and 0.1 M Sodium Orthovanadate). For PARP cleavage analysis, dead cells were collected by centrifugation and combined with live cell lysates. Lysates were sonicated, centrifuged, and the supernatant quantified using the BCA Protein Assay Kit (Pierce, Thermo Scientific) according to the manufacturer's instructions. […]
For nuclear/cytoplasmic protein extraction, cells were collected by trypsinization. […] The fractions were quantified using the BCA Protein Assay Kit (Pierce, Thermo Scientific) according to the manufacturer's instructions, followed by western blot analysis.

[6] = test system: p53 reporter activity in SiHa cells; experiment: p53-luciferase reporter assay; type: cell-based; settings: single cisplatin treatment
Method: as §2

[7] = single cisplatin treatment at 30 μM and 60 μM
[8] = 48-h treatment, no INI-43 pre-treatment
[9] = Kpnβ1 knock-down (si-Kpnβ1) cells
[10] = control siRNA (si-ctrl) transfected cells

| Structure (SMILES) | effect on p53 stability (p53) | levels of cyclin D1 and c-Myc [1] | p53 protein levels ([2]; SiHa, single cisplatin treatment) | Mcl-1 levels [2, 7] | p21 levels [2, 7] | p65 reporter activity [3] | IC50 (CaSki) | IC50 (C33A) | IC50 (SiHa; [8]) | IC50 (SiHa; [9]) | IC50 (SiHa; [10]) | IC50 (HeLa; [8]) | IC50 (HeLa; [9]) | IC50 (HeLa; [10]) | nuclear fluorescence relative to cytoplasmic fluorescence (Fc (Nu/Cy)) ([4]; single cisplatin treatment) | nuclear localization of NFκB-p50 and NFκB-p65 ([4]; single cisplatin treatment (30 μM), 24 h) | levels of NFκB-p50 and NFκB-p65 in the nucleus [5] | p53 reporter activity [6] |
| --- | --- | --- | --- | --- | --- | --- | --- | --- | --- | --- | --- | --- | --- | --- | --- | --- | --- | --- |
| COc1cc(-c2ncn(/C=C\C(=O)OC(C)C)n2)cc(C(F)(F)F)c1 [KPT-185] | stabilize p53 | – | – | – | – | – | – | – | – | – | – | – | – | – | – | – | – | – |
| N.N.[Cl][Pt][Cl] [cisplatin, reference compound] | – | elevated levels | increased | decreased | decreased | induced | 18.1 µM | 12.8 µM | 30.8 µM | 19.3 µM | 30.5 µM | 18 µM | 9.7 µM | 24.4 µM | significant increase | stimulated nuclear localization | increased levels | significantly reduced |
| CCC(=C/[C@H](C)C/C=C/C(C)=C/[C@@H](C)C(=O)[C@@H](C)[C@H](O)[C@@H](C)C/C(C)=C/C(=O)O)/C=C/[C@@H]1OC(=O)C=C[C@@H]1C [leptomycin B] | stabilize p53 | – | – | – | – | – | – | – | – | – | – | – | – | – | – | – | – | – |
